Laboratory results from article PMC11589570, “Critical assessment of LC3/GABARAP ligands used for degrader development and ligandability of LC3/GABARAP binding pockets” (Nature Communications, 2024).
Like-named read-outs stand apart in the source and are kept apart here.

Biological target: GABARAPL2 (Homo sapiens, UniProt P60520)
Settings: GABARAPL2:ligand molar ratio 1:2

Chain of GABARAPL2 (P60520 whole entry): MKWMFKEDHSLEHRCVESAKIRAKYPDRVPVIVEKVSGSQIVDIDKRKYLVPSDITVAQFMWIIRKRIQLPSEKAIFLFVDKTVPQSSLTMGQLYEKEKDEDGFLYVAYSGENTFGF

`Cc1ccc(C(=O)N(CCCN)[C@@H](c2nc3cc(Cl)ccc3c(=O)n2Cc2ccccc2)C(C)C)cc1` [compound 3, (R)-N-(3-aminopropyl)-N-(1-(3-benzyl-7-chloro-4-oxo-3,4-dihydroquinazolin-2-yl)−2-methylpropyl)−4-methylbenzamide] showed a CSP (residue A19) of 0.00171 ppm, a CSP (residue A23) of 0.00424 ppm and a CSP (residue A58) of 0.00148 ppm. For the same compound, the CSP (residue A75) was 0.002 ppm, the CSP (residue A108) was 0.000762 ppm and the CSP (residue C15) was 0.004 ppm. It also gave a CSP (residue D8) of 0.00263 ppm, a CSP (residue D27) of 0.00158 ppm and a CSP (residue D43) of 0.00251 ppm. For the same compound, the CSP (residue D45) was 0.003 ppm, the CSP (residue D54) was 0.000849 ppm and the CSP (residue D81) was 0.00228 ppm. It also gave a CSP (residue D100) of 0.00228 ppm, a CSP (residue D102) of 0.00165 ppm and a CSP (residue E7) of 0.00472 ppm. The CSP (residue E12) was 0.00142 ppm, the CSP (residue E17) was 0.000762 ppm and the CSP (residue E34) was 0.009 ppm. It also gave a CSP (residue E73) of 0.000762 ppm, a CSP (residue E96) of 0.000707 ppm and a CSP (residue E98) of 0.00122 ppm. The CSP (residue E101) was 0.002 ppm, the CSP (residue E112) was 0.0017 ppm and the CSP (residue F60) was 0.005 ppm. It also gave a CSP (residue F77) of 0.000283 ppm, a CSP (residue F79) of 0.002 ppm and a CSP (residue F104) of 0.0075 ppm. It also gave a CSP (residue F115) of 0.005 ppm, a CSP (residue G38) of 0.005 ppm and a CSP (residue G103) of 0.00213 ppm. It also gave a CSP (residue G111) of 0.00847 ppm, a CSP (residue G116) of 0.0024 ppm and a CSP (residue H9) of 0.010 ppm. For the same compound, the CSP (residue H13) was 0.0011 ppm, the CSP (residue I21) was 0.00184 ppm and the CSP (residue I32) was 0.00354 ppm. It also gave a CSP (residue I41) of 0.011 ppm, a CSP (residue I44) of 0.00216 ppm and a CSP (residue I55) of 0.000762 ppm. For the same compound, the CSP (residue I63) was 0.004 ppm, the CSP (residue I64) was 0.00283 ppm and the CSP (residue I68) was 0.008 ppm. It also gave a CSP (residue I76) of 0.000707 ppm, a CSP (residue K2) of 0.008 ppm and a CSP (residue K6) of 0.007 ppm. It also gave a CSP (residue K20) of 0.000707 ppm, a CSP (residue K24) of 0.001 ppm and a CSP (residue K35) of 0.004 ppm. For the same compound, the CSP (residue K46, estimated) was 0.010 ppm, the CSP (residue K48) was 0.022 ppm and the CSP (residue K66) was 0.00142 ppm. The CSP (residue K74) was 0.000906 ppm, the CSP (residue K97) was 0.00113 ppm and the CSP (residue K99) was 0.00144 ppm. For the same compound, the CSP (residue L11) was 0.000762 ppm, the CSP (residue L50) was 0.00216 ppm and the CSP (residue L70) was 0.0019 ppm. The CSP (residue L78) was 0.00212 ppm, the CSP (residue L105) was 0.00283 ppm and the CSP (residue M1) was 0.006 ppm. For the same compound, the CSP (residue M61) was 0.00221 ppm, the CSP (residue N113) was 0.000141 ppm and the CSP (residue P26, estimated) was 0.002 ppm. For the same compound, the CSP (residue P30, estimated) was 0.002 ppm, the CSP (residue P52, estimated) was 0.002 ppm and the CSP (residue P71, estimated) was 0.002 ppm. For the same compound, the CSP (residue Q40) was 0.00659 ppm, the CSP (residue Q59) was 0.000424 ppm and the CSP (residue Q69) was 0.0011 ppm. The CSP (residue R14) was 0.003 ppm, the CSP (residue R22) was 0.00649 ppm and the CSP (residue R28) was 0.00232 ppm. It also gave a CSP (residue R47, estimated) of 0.015 ppm, a CSP (residue R65) of 0.0022 ppm and a CSP (residue R67) of 0.003 ppm. For the same compound, the CSP (residue S10) was 0.008 ppm, the CSP (residue S18) was 0.00146 ppm and the CSP (residue S37) was 0.005 ppm. For the same compound, the CSP (residue S39) was 0.00232 ppm, the CSP (residue S53) was 0.002 ppm and the CSP (residue S72) was 0.00122 ppm. For the same compound, the CSP (residue S110) was 0.000825 ppm, the CSP (residue T56) was 0.00133 ppm and the CSP (residue T114) was 0.0017 ppm. The CSP (residue V16) was 0.000141 ppm, the CSP (residue V29) was 0.00214 ppm and the CSP (residue V31) was 0.00444 ppm. It also gave a CSP (residue V33) of 0.00281 ppm, a CSP (residue V36) of 0.00638 ppm and a CSP (residue V42) of 0.00652 ppm. For the same compound, the CSP (residue V51) was 0.00319 ppm, the CSP (residue V57) was 0.00127 ppm and the CSP (residue V80) was 0.00281 ppm. The CSP (residue V107) was 0.005 ppm, the CSP (residue W3) was 0.007 ppm and the CSP (residue W62) was 0.0057 ppm. It also gave a CSP (residue Y25) of 0.00742 ppm, a CSP (residue Y49) of 0.010 ppm and a CSP (residue Y106) of 0.00214 ppm. The CSP (residue Y109) was 0.00263 ppm.
